These are literature values, as cited in patent US11000594B2, “Composition comprising an organic liquid diluent and a cellulose ether of very low viscosity” (Dow Global Technologies LLC, priority 2012, dated 2021).

In brackets after ≈: the same amount, converted by molar mass.

Take `COC1=CC(=O)C[C@@H](C)[C@]12Oc1c(Cl)c(OC)cc(OC)c1C2=O` [Griseofulvin]: the water solubility was 8.54 µg/mL (≈ 24.2 µM).
